Read-outs that look alike come from different tables or passages of the source. Some results are limits rather than exact numbers.

The values below come from patent US8802664B2 (Bioproject, priority 2010, dated 2014).

The experiment concerns the target T1, human H4 receptor (Homo sapiens, UniProt Q9H3N8).
T1 construct: expressed in transfected cells
The experiment in a line: [3H]Histamine binding on membranes of CHO cells stably expressing human H4 receptor. In a few lines:
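Nonspecific binding defined with 10 μM JNJ 7777120. Bound radioactivity collected on polyethyleneimine-treated GF/B filters and counted by liquid scintillation.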

T1 sequence (Q9H3N8 whole entry): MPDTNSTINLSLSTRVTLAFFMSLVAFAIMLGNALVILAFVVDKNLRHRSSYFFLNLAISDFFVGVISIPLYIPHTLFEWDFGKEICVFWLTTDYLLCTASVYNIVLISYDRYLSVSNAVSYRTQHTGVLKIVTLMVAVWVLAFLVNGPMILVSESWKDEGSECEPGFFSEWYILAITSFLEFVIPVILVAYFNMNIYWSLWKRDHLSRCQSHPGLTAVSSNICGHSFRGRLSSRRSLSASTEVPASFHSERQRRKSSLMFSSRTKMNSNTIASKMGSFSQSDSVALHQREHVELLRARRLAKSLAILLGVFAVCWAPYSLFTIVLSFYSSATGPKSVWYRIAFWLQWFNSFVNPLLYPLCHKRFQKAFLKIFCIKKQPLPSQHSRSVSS

In turn, `C=CCCCOc1cccc(C(OC2CCN(C)CC2)c2nc3ccccc3s2)c1` (centres unmarked) [Example 168, 2-[(1-methylpiperidin-4-yloxy)(3-pent-4-enyloxy-phenyl)methyl]benzothiazole] gave a Ki or IC50 activity class of under 0.3 µM.
Still for that read-out and setting: then `CN1CCC(OC(c2cccc(OCCCCN3CCOCC3)c2)c2nc3ccccc3[nH]2)CC1` (centres unmarked) [Example 332, 2-{(1-methylpiperidin-4-yloxy)[3-(4-morpholin-4-yl-butoxy)phenyl]methyl}-1H-benzimidazole], with under 1 µM; and `CN1CCC(OC(c2cccc(OC(F)(F)F)c2)c2nc3ccccc3s2)CC1` (centres unmarked) [Example 23, 2-[(1-methylpiperidin-4-yloxy)(3-trifluoromethoxyphenyl)methyl]benzothiazole], with under 0.03 µM; and `CN1CCC(OC(c2cccc(OCCCN)c2)c2nc3ccccc3s2)CC1` (centres unmarked) [Example 311, 3-{3-[benzothiazol-2-yl(1-methylpiperidin-4-yloxy)methyl]phenoxy}propylamine], with under 0.3 µM.
On the same count and under the same terms, then `CN1CCC(OC(c2cccc(N3CC(N(C)C)C3)c2)c2nc3ccccc3s2)CC1` (centres unmarked) [Example 450], with under 1 µM.
Still for that read-out and setting: then `CN1CCC(OC(c2cccc(OCCCCN3CCOCC3)c2)c2nc3ccccc3s2)CC1` (centres unmarked) [Example 322, 2-{(1-methylpiperidin-4-yloxy)[3-(4-morpholin-4-yl-butoxy)phenyl]methyl}benzothiazole], with under 1 µM; and `CN1CCC(NC(c2cccc(-c3ccccc3)c2)c2nc3ccccc3s2)CC1` (centres unmarked) [Example 102, (benzothiazol-2-ylbiphenyl-3-ylmethyl)(1-methylpiperidin-4-yl)amine], with under 0.03 µM.
On to `COC(=O)c1cccc(C(OC2CCN(C)CC2)c2nc3ccccc3s2)c1` (centres unmarked) [Example 199, 3-[benzothiazol-2-yl(1-methylpiperidin-4-yloxy)methyl]benzoic acid methyl ester], for which the Ki or IC50 activity class was under 0.3 µM.
With `CC(=O)OC1CCN(c2cccc(C(OC3CCN(C)CC3)c3nc4ccccc4s3)c2)CC1` (centres unmarked) [Example 413, acetic acid 1-{3-[benzothiazol-2-yl(1-methylpiperidin-4-yloxy)methyl]phenyl}piperidin-4-yl ester], the Ki or IC50 activity class is under 0.3 µM.
The same measure, in the same setting: for `CN1CCC(OC(c2cccc(OCCCN3CCN(C(=O)OC(C)(C)C)CC3)c2)c2nc3ccccc3[nH]2)CC1` (centres unmarked) [Example 360, 4-(3-{3-[(1H-benzimidazol-2-yl)(1-methylpiperidin-4-yloxy)methyl]phenoxy}propyl)piperazine-1-carboxylic acid tert-butyl ester] the value was under 1 µM; for `CCSc1cccc(C(OC2CCN(C)CC2)c2nc3ccccc3[nH]2)c1` (centres unmarked) [Example 153, 2-[(3-ethylsulfanylphenyl)(1-methylpiperidin-4-yloxy)methyl]-1H-benzimidazole], under 0.03 µM.
`CN1CCC(OC(c2ccc(F)c(OC(F)(F)F)c2)c2nc3ccccc3[nH]2)CC1` (centres unmarked) [Example 518] displayed a Ki or IC50 activity class of under 1 µM.
On the same count and under the same terms, for `CN1CCC(OC(c2cccc(-c3cccc(F)c3)c2)c2nc3ccccc3[nH]2)CC1` (centres unmarked) [Example 109, 2-[(3′-fluoro-biphenyl-3-yl)(1-methylpiperidin-4-yloxy)methyl]-1H-benzimidazole] the value was under 0.3 µM; for `CN1CCC(OC(c2cccc(C(F)(F)F)c2)c2nc3ccccc3s2)CC1` (centres unmarked) [Example 31, 2-[(1-methylpiperidin-4-yloxy)(3-trifluoromethylphenyl)methyl]benzothiazole], under 0.03 µM.
Still for that read-out and setting: for `CN1CCC(OC(c2cccc(C#CCCCNC(=N)N)c2)c2nc3ccccc3s2)CC1` (centres unmarked) [Example 340, N-(5-{3-[benzothiazol-2-yl(1-methylpiperidin-4-yloxy)methyl]phenyl}pent-4-ynyl)guanidine] the value was under 0.03 µM.
`CN1CCC(NC(c2cccc(OCc3cccc(F)c3)c2)c2nc3ccccc3[nH]2)CC1` (centres unmarked) [Example 105, {(1H-benzimidazol-2-yl)[3-(3-fluorobenzyloxy)phenyl]methyl}(1-methylpiperidin-4-yl)amine]: the Ki or IC50 activity class was under 0.03 µM.
In turn, `CN1CCC(OC(c2cccc(-c3cccc(F)c3)c2)c2nc3ccccc3s2)CC1` (centres unmarked) [Example 139, 2-[(3′-fluorobiphenyl-3-yl)(1-methylpiperidin-4-yloxy)methyl]benzothiazole] yielded a Ki or IC50 activity class of under 0.03 µM.
Still for that read-out and setting: for `CN1CCC(OC(c2ccc3cc[nH]c3c2)c2nc3ccccc3[nH]2)CC1` (centres unmarked) [Example 550, 2-[(1H-indol-6-yl)(1-methylpiperidin-4-yloxy)methyl]-1H-benzimidazole] the value was under 0.03 µM; for `CCCOc1cccc(C(OC2CCN(C)CC2)c2nc3ccccc3s2)c1` (centres unmarked) [Example 26, 2-[(1-methylpiperidin-4-yloxy)(3-propoxy-phenyl)methyl]benzothiazole], under 0.03 µM.
As to `CN1CCC(OC(c2cccc(SCCCCN)c2)c2nc3cc(F)ccc3[nH]2)CC1` (centres unmarked) [Example 440, 4-{3-[(5-fluoro-1H-benzimidazol-2-yl)(1-methylpiperidin-4-yloxy)methyl]phenylsulfanyl}butylamine], the Ki or IC50 activity class was under 0.03 µM.
In turn, `CN1CCC(OC(c2cccc(I)c2)c2nc3ccccc3s2)CC1` (single isomer, unassigned) [Example 118, 2-[(3-iodophenyl)(1-methylpiperidin-4-yloxy)methyl]benzothiazole] had a Ki or IC50 activity class (human H4 receptor, evaluated in the GTPγ[35S] assay or in the [3H]histamine binding assay (not stated which per compound), Ki or IC50 class) of under 0.03 µM.
Turning to `Cc1ccc(F)c(C(OC2CCN(C)CC2)c2nc3ccccc3[nH]2)c1` (centres unmarked) [Example 490], the Ki or IC50 activity class was under 0.3 µM.
On the same count and under the same terms, then `CN1CCC(OC(c2nc3ccccc3s2)c2cc(OC(F)(F)F)ccc2F)CC1` (centres unmarked) [Example 526], with under 0.03 µM; and `CN1CCC(OC(c2cccc(-c3cccc(CO)c3)c2)c2nc3ccccc3[nH]2)CC1` (centres unmarked) [Example 86, {3′-[(1H-benzimidazol-2-yl)(1-methylpiperidin-4-yloxy)methyl]biphenyl-3-yl}methanol], with under 0.3 µM.
On the same count and under the same terms, then `CN1CCC(OC(c2cccc(OS(=O)(=O)C(F)(F)F)c2)c2nc3ccccc3s2)CC1` (centres unmarked) [Example 71, trifluoromethanesulfonic acid 3-[benzothiazol-2-yl(1-methylpiperidin-4-yloxy)methyl]phenyl ester], with under 0.3 µM.
On the same count and under the same terms, for `CN1CCC(NC(c2cccc(OCCF)c2)c2nc3ccccc3[nH]2)CC1` (centres unmarked) [Example 180, {(1H-benzimidazol-2-yl)[3-(2-fluoro-ethoxy)phenyl]methyl}(1-methylpiperidin-4-yl)amine] the value was under 0.03 µM; for `CN1CCC(OC(c2cccc(SCCCCCO)c2)c2nc3ccccc3[nH]2)CC1` (centres unmarked) [Example 445, 5-{3-[(1H-benzimidazol-2-yl)(1-methylpiperidin-4-yloxy)methyl]phenylsulfanyl}pentan-1-ol], under 0.3 µM; for `CN1CCC(NC(c2cccc(OCc3ccccc3F)c2)c2nc3ccccc3[nH]2)CC1` (centres unmarked) [Example 113, {(1H-benzimidazol-2-yl)[3-(2-fluorobenzyloxy)phenyl]methyl}(1-methylpiperidin-4-yl)amine], under 0.03 µM.
`CN1CCC(OC(c2cccc(N3CCCC3CO)c2)c2nc3ccccc3s2)CC1` (centres unmarked) [Example 323, (1-{3-[benzothiazol-2-yl(1-methylpiperidin-4-yloxy)methyl]phenyl}pyrrolidin-2-yl)methanol] registered a Ki or IC50 activity class of under 1 µM.
